Values of other authors as cited in patent publication US20080114067A1, “Composition for Recovery From or Prevention of Central Nervous System Fatigue” (priority 2005, published 2008).

Test system: human placental cell
Details: placental brush border tissue

N[C@@H](CS)C(=O)O [L-cysteine]
suppression of uptake of tryptophan: could be suppressed

CC(C)C[C@H](N)C(=O)O [L-leucine]
suppression of uptake of tryptophan: could be suppressed

CSCC[C@H](N)C(=O)O [L-methionine]
suppression of uptake of tryptophan: could be suppressed

N[C@@H](Cc1ccccc1)C(=O)O [L-phenylalanine]
suppression of uptake of tryptophan: could be suppressed

CC(C)[C@H](N)C(=O)O [L-valine]
suppression of uptake of tryptophan: could be suppressed
